Experimental data published in PubChem BioAssay AID588631 (NMMLSC, 2011).
Calls of active or inactive are those of the source. The rule behind the calls is not given here.

Target: Ras-related protein Rab7 wild type (dog)
Assay: blockers of fluorescent GTP uptake by Rab7 – biochemical, dog Rab7, bead multiplex flow cytometry, round 2, SAR follow-up (AID 588631)
Settings: Bead-based multiplex flow cytometry; for EC50: fluorescent GTP binding; for percent response (remaining binding): at 100 µM (top of the series)

SMILES	EC50 [nM]	percent response (remaining binding)
CCC1(C)Cc2c(sc(NC(=S)NC(=O)c3ccccc3)c2C(=O)O)CO1 (stereo not given)	37	
CC1(C)Cc2c(sc(NC(=S)NC(=O)c3ccccc3Br)c2C(=O)O)CO1	1210	
COc1ccccc1C(=O)NC(=S)Nc1sc2c(c1C(=O)O)CC(C)(C)OC2	1120	
CC1(C)Cc2c(sc(NC(=S)NC(=O)c3ccccc3F)c2C(=O)O)CO1	318	
Cc1ccc(C(=O)NC(=S)Nc2sc3c(c2C(=O)O)CC(C)(C)OC3)cc1	135	
CC1(C)Cc2c(sc(NC(=S)NC(=O)c3cccc(Br)c3)c2C(=O)O)CO1	3990	
CC1(C)Cc2c(sc(NC(=S)NC(=O)c3ccc(Br)cc3)c2C(=O)O)CO1	496	
CC1(C)Cc2c(sc(NC(=S)NC(=O)C3CCCCC3)c2C(=O)O)CO1	809	
COc1cccc(C(=O)NC(=S)Nc2sc3c(c2C(=O)O)CC(C)(C)OC3)c1	295	
CC(C)(C)C1Cc2c(sc(NC(=S)NC(=O)c3ccccc3)c2C(=O)O)CO1 (stereo not given)		inactive
O=C(NC(=S)Nc1sc2c(c1C(=O)O)CC1(CCCC1)OC2)c1ccccc1	35	
CC1(C)Cc2c(sc(NC(=S)NC(=O)c3ccc(F)cc3)c2C(=O)O)CO1	95	
CC1(C)Cc2c(sc(NC(=S)NC(=O)c3cccc(F)c3)c2C(=O)O)CO1	415	
CC1(C)Cc2c(sc(NC(=S)NC(=O)c3cccs3)c2C(=O)O)CO1	25	
CC1(C)CCc2sc(NC(=S)NC(=O)c3ccccc3)c(C(=O)O)c2C1	46	
CC1(C)Cc2c(sc(NC(=S)NC(=O)c3ccco3)c2C(=O)O)CO1	74	
CC1(C)Cc2c(sc(NC(=S)Nc3ccccc3)c2C(=O)O)CO1		inactive
Cc1cccc(C(=O)NC(=S)Nc2sc3c(c2C(=O)O)CC(C)(C)OC3)c1	1160	
COc1ccc(C(=O)NC(=S)Nc2sc3c(c2C(=O)O)CC(C)(C)OC3)cc1	221	
Cc1ccccc1C(=O)NC(=S)Nc1sc2c(c1C(=O)O)CC(C)(C)OC2	411	
